Data as given in patent US9629884B2, “Compositions and methods for increasing lifespan and health span” (GENEREX PHARMACEUTICALS, INC., priority 2009, dated 2017).

Assay: Blood glucose level in a diabetic patient (mercy treatment)
Format: in vivo, human
Details: Diamicron 80 mg, 2 tablets every morning, before OEGJ
Experimental: Based on the above-mentioned rationale, the possibility of using OEGJ for the treatment of diabetes was tested in diabetics on the basis of mercy treatment. A person was first diagnosed with diabetes before undergoing hemorrhoid surgery a year before treatment. Their blood glucose level at that time was 24.0 mmol/L. They were put on insulin treatment for a week and started to take diabetes medicine (Diamicron 80 mg, 2 tablets every morning under fasting condition).

SMILES: Cc1ccc(S(=O)(=O)NC(=O)NN2CC3CCCC3C2)cc1 (stereo not shown) [Diamicron]
- average blood glucose level during six-month period on the medication: 9.97 mmol/L
